ChEMBL document CHEMBL3603826, “6-Arylpyrazine-2-carboxamides: A New Core for Trypanosoma brucei Inhibitors” (J Med Chem, 2015)
Converted amounts (≈) assume the structure as drawn.

What was measured:
[1] = Stability assessed as degradation half life; assay type: physicochemical
[2] = Ratio of drug concentration in brain to plasma of Swiss mouse at normalized dose of 1 mg/kg, iv after 5 mins by LC-MS method; assay type: ADME, organism-based; conditions: read-out: BPR
[3] = Kinetic solubility in pH 6.5 phosphate buffer by nephelometry; assay type: physicochemical; conditions: read-out: Kinetic_solubility
[4] = Kinetic solubility in pH 2.0 0.01M HCl buffer by nephelometry; assay type: physicochemical; conditions: read-out: Kinetic_solubility
[5] = test system: Trypanosoma brucei brucei; assay: Anti-parasitic activity against Trypanosoma brucei brucei 427 bloodstream parasites incubated for 48 hrs by alamar blue dye based assay; assay type: functional, organism-based; conditions: Trypanosoma brucei, 427, 48 h
[6] = test system: Trypanosoma cruzi; assay: Anti-parasitic activity against Trypanosoma cruzi Tulahuen C2C4 trypomastigotes infected rat L6 cells incubated for 96 hrs by CPRG/nonidet substrate based […]; assay type: functional, organism-based; conditions: Tulahuen C2C4, L6, 96 h
[7] = test system: Leishmania donovani; assay: Anti-parasitic activity against Leishmania donovani MHOM/ET/67/L82 axenic amastigotes incubated for 70 hrs by alamar blue dye based assay; assay type: functional, organism-based; conditions: MHOM/ET/67/L82, 70 h
[8] = Selectivity index, ratio of cytotoxic IC50 for HEK293 cells to EC50 for anti-parasitic activity against Trypanosoma brucei brucei 427 bloodstream parasites; assay type: toxicity, cell-based; conditions: human, read-out: Ratio IC50/EC50
[9] = test system: Plasmodium falciparum; assay: Anti-parasitic activity against chloroquine and pyrimethamine resistant Plasmodium falciparum K1 erythrocytic stages infected in human erythrocytes incubated for 48 hrs by [3H]-hypoxanthine incorporation assay; assay type: functional, organism-based
[10] = test system: Brain; assay: Drug concentration in Swiss mouse brain at normalized dose of 1 mg/kg, iv after 5 mins by LC-MS method; assay type: ADME, organism-based; conditions: in vivo
[11] = Selectivity index, ratio of cytotoxic IC50 for rat L6 cells to EC50 for anti-parasitic activity against Trypanosoma brucei rhodesiense STIB 900; assay type: toxicity, cell-based; conditions: read-out: Ratio IC50/EC50
[12] = Intrinsic clearance in human liver microsomes assessed per mg protein at pH 7.4 at 0.5 uM in presence of NADPH regenerating system by LC-MS method; assay type: ADME; conditions: read-out: CLH
[13] = test system: Trypanosoma brucei rhodesiense; assay: Anti-parasitic activity against Trypanosoma brucei rhodesiense STIB 900 trypomastigotes incubated for 70 hrs by alamar blue dye based assay; assay type: functional, organism-based; conditions: STIB 900, 70 h
[14] = Toxicity against rat L6 cells incubated for 70 hrs by alamar blue dye based assay; assay type: cell-based
[15] = Partition coefficient, logD of the compound at pH 7.4 by HPLC method; assay type: physicochemical; conditions: octanol/water
[16] = biological target: serum albumin (Homo sapiens, UniProt P02768); assay: Binding affinity to human serum albumin by chromatographic method; assay type: ADME; conditions: read-out: PB (converted)
[17] = Volume of distribution in Swiss mouse at 1.8 mg/kg, iv by LC-MS method; assay type: ADME, organism-based; conditions: in vivo
[18] = Blood clearance in Swiss mouse at 1.8 mg/kg, iv by LC-MS method; assay type: ADME, organism-based; conditions: whole blood
[19] = Apparent half life in Swiss mouse at 1.8 mg/kg, iv by LC-MS method; assay type: ADME, organism-based; conditions: in vivo, read-out: t1/2(app) (converted)
[20] = test system: Mus musculus; assay: Blood clearance in Swiss mouse at 1.8 mg/kg, iv by LC-MS method relative to hepatic blood flow; assay type: ADME, organism-based, Liver; conditions: in vivo
[21] = Drug metabolism in human liver microsomes after 60 mins at 10 uM presence of NADPH regenerating system by LC-MS method; assay type: ADME; conditions: read-out: Drug metabolism
[22] = test system: Liver microsome; assay: Drug metabolism in human liver microsomes assessed as oxygenated metabolite formation after 60 mins at 10 uM presence of NADPH regenerating system by LC-MS method; assay type: ADME; conditions: 1 h
[23] = test system: Liver microsome; assay: Drug metabolism in human liver microsomes assessed as oxygenated metabolite formation after 60 mins at 10 uM presence of NADPH regenerating system and UDPGA by LC-MS method; assay type: ADME; conditions: 1 h
[24] = Drug stability in human liver microsomes assessed as parent compound loss after 60 mins at 10 uM absence of NADPH regenerating system and UDPGA by LC-MS method; assay type: ADME; conditions: read-out: Drug degradation
[25] = test system: Liver microsome; assay: Drug metabolism in human liver microsomes assessed as N-oxide metabolite formation after 60 mins at 10 uM absence of NADPH regenerating system and UDPGA by LC-MS method; assay type: ADME; conditions: 1 h
[26] = test system: Liver microsome; assay: Drug level in human liver microsomes treated with 10 uM 3-Amino-N-cyclopentyl-6-(m-tolyl)pyrazine-2-carboxamide assessed as compound formation after 60 mins presence of NADPH regenerating system by LC-MS method; assay type: ADME; conditions: 1 h
[27] = test system: Liver microsome; assay: Drug level in human liver microsomes treated with 10 uM 3-Amino-N-cyclopentyl-6-(m-tolyl)pyrazine-2-carboxamide assessed as compound formation after 60 mins presence of NADPH regenerating system and UDPGA by LC-MS method; assay type: ADME; conditions: 1 h
[28] = test system: Liver microsome; assay: Drug level in human liver microsomes treated with 10 uM 3-Amino-N-cyclopentyl-6-(m-tolyl)pyrazine-2-carboxamide assessed as compound formation after 60 mins absence of NADPH regenerating system and UDPGA by LC-MS method; assay type: ADME; conditions: 1 h
[29] = Toxicity in late-stage human african trypanosomiasis patient assessed as mortality rate following 10-day schedule; assay type: organism-based; conditions: in vivo

serum albumin, sequence (P02768 whole entry): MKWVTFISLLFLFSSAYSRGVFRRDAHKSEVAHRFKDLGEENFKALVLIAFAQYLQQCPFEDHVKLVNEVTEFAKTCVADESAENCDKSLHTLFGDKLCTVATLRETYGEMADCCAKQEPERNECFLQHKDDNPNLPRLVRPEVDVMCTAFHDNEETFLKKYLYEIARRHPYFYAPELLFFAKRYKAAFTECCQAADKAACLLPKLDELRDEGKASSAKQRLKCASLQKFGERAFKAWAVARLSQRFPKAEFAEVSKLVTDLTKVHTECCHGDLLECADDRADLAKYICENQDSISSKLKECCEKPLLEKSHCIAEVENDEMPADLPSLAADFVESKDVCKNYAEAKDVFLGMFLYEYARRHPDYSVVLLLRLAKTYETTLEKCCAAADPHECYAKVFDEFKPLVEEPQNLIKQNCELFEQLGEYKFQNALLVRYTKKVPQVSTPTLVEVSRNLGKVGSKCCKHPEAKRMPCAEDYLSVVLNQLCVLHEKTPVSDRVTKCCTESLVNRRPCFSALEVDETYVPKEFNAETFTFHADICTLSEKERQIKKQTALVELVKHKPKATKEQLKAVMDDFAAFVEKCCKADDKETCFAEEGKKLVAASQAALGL

Row | SMILES | half-life [1] | solubility kinetic [3] | solubility kinetic [4] | EC50 [5] | EC50 [6] | EC50 [7] | selectivity ratio [8] | EC50 [9] | selectivity ratio [11] | microsomal CLint at 0.5 µM [12] | EC50 [13] | IC50 at 70 h [14] | logD [15] | fraction unbound [16] | also measured
1 | Nc1ncc(-c2ccccc2)nc1C(=O)NC1CCCC1 | 9 min | 25 µg/mL (≈ 88.5 µM) | 6.3 µg/mL (≈ 22.3 µM) | 260 nM | 13 µM | > 10 µM | > 368 | 6.1 µM | 140 | 198 µL/min/mg | 140 nM | 20 µM | 4.1 | 0.042 | Kp at 5 min [2]: 5.7; Drug uptake [10]: 1192.3 ng/g
2 | CCC(C)NC(=O)c1nc(-c2cccc(Cl)c2)cnc1N (centres undefined) | 12 min | 1.6 µg/mL (≈ 5.25 µM) | 1.6 µg/mL (≈ 5.25 µM) | 480 nM | 25 µM | > 10 µM | 175 | 1.1 µM | 20 | 147 µL/min/mg | 2020 nM | 39 µM | 4.4 | 0.028 | –
3 | CCC(C)NC(=O)c1nc(-c2ccc(F)cc2)cnc1N (centres undefined) | 15 min | 50 µg/mL (≈ 173 µM) | 6.3 µg/mL (≈ 21.9 µM) | 400 nM | 17 µM | > 10 µM | > 206 | 9 µM | 61 | 119 µL/min/mg | 220 nM | 17 µM | 4 | 0.058 | Kp at 5 min [2]: 5.1; Drug uptake [10]: 1069.5 ng/g
4 | CCC(CC)NC(=O)c1nc(-c2cccc(C)c2)cnc1N | 9 min | 1.6 µg/mL (≈ 5.36 µM) | 1.6 µg/mL (≈ 5.36 µM) | 110 nM | 20 µM | > 10 µM | 774 | 4.1 µM | 150 | 194 µL/min/mg | 140 nM | 20 µM | 4.7 | 0.036 | –
5 | CCC(CC)NC(=O)c1nc(-c2ccc(F)cc2)cnc1N | 21 min | 3.1 µg/mL (≈ 10.3 µM) | 3.1 µg/mL (≈ 10.3 µM) | 80 nM | 15 µM | > 10 µM | 1024 | 7.6 µM | 540 | 84 µL/min/mg | 53 nM | 28 µM | 4.4 | 0.036 | Vd [17]: 14.7 L/kg; clearance [18]: 69 mL/min/kg; half-life [19]: 546 min; CL [20]: 60%
6 | CCC(CC)NC(=O)c1nc(-c2ccc(F)c(C)c2)cnc1N | 8 min | < 1.6 µg/mL | < 1.6 µg/mL | 25 nM | 13 µM | > 10 µM | 423 | 1.8 µM | 630 | 212 µL/min/mg | 38 nM | 24 µM | 4.8 | 0.022 | –
7 | CCC(CC)NC(=O)c1nc(-c2ccc(F)cc2C#N)cnc1N | 26 min | 1.6 µg/mL (≈ 4.89 µM) | < 1.6 µg/mL | 100 nM | 19 µM | > 10 µM | 850 | 2.9 µM | 230 | 66 µL/min/mg | 89 nM | 20 µM | 4.2 | 0.029 | –
8 | N#Cc1ccccc1-c1cnc(N)c(C(=O)NC2CCCC2)n1 | 10 min | < 1.6 µg/mL | 3.1 µg/mL (≈ 10.1 µM) | 200 nM | 5.2 µM | > 10 µM | 416 | 2.5 µM | 19 | 165 µL/min/mg | 570 nM | 11 µM | 3.9 | 0.038 | –
9 | Cc1cccc(-c2cnc(N)c(C(=O)NC3CCCC3)n2)c1 | 7 min | 3.1 µg/mL (≈ 10.5 µM) | 3.1 µg/mL (≈ 10.5 µM) | 35 nM | 17 µM | > 10 µM | 2380 | 4.9 µM | 1790 | 266 µL/min/mg | 24 nM | 42 µM | 4.6 | 0.023 | metabolised at 1 h, 10 µM [21]: 92%; Drug metabolism [22]: metabolite_detected; Drug metabolism [23]: metabolite_detected; metabolised at 1 h, 10 µM [24]: 6%; Drug metabolism [25]: metabolite_detected
10 | Nc1ncc(-c2cccc(CO)c2)nc1C(=O)NC1CCCC1 | – | – | – | – | – | – | – | – | – | – | – | – | – | – | Drug metabolism [26]: metabolite_detected; Drug metabolism [27]: metabolite_detected
11 | Cc1cccc(-c2c[n+]([O-])c(N)c(C(=O)NC3CCCC3)n2)c1 | – | – | – | – | – | – | – | – | – | – | – | – | – | – | Drug metabolism [28]: metabolite_detected; Drug metabolism [26]: metabolite_detected; Drug metabolism [27]: metabolite_detected
12 | Nc1ncc(-c2cccc(C(=O)O)c2)nc1C(=O)NC1CCCC1 | – | – | – | – | – | – | – | – | – | – | – | – | – | – | Drug metabolism [26]: metabolite_detected; Drug metabolism [27]: metabolite_detected
13 | Cc1cccc(-c2cnc(N)c(C(=O)NC3=CCCC3)n2)c1 | – | – | – | – | – | – | – | – | – | – | – | – | – | – | Drug metabolism [26]: metabolite_detected; Drug metabolism [27]: metabolite_detected
14 | Nc1nc(N)nc(Nc2ccc([As]3SCC(CO)S3)cc2)n1 (centres undefined) [MELARSOPROL] | – | – | – | – | – | – | – | – | – | – | – | – | – | – | mortality at 10 day [29]: 5.9%
